Data as given in publication PMC10644342, “Improved Antibacterial Activity of 1,3,4-Oxadiazole-Based Compounds That Restrict Staphylococcus aureus Growth Independent of LtaS Function” (ACS Infectious Diseases, 2023).

Legend:
[1] = tested on: Pseudomonas aeruginosa strain PAO1; experiment: Growth inhibition in combination with PAβN; type: cell-based; conditions: 32 μg/mL compound with 100 μg/mL PAβN
Description: Phenylalanine-arginine β-naphthylamide (PAβN) is a well-studied efflux pump inhibitor, which can also permeabilize the outer membrane of Gram-negative organisms.[40] […] Without the addition of PAβN (0 μg/mL), neither 1771 nor 13 had any growth inhibitory activity at concentrations up to 64 μg/mL. With the addition of 25 μg/mL of PAβN, the E. coli strain K12 could still grow in the presence of 64 μg/mL of 1771 or 13; however, the growth rate was severely impacted in a dose-dependent manner. […] To further evaluate the Gram-negative coverage of 1771 and 13, we also tested 1771 or 13 in combination with PAβN against Pseudomonas aeruginosa strain PAO1, Klebsiella pneumoniae strain 699 (clinical isolate), and Acinetobacter baumannii strain DF1000 (clinical isolate) (Figure S6a–c).
Figure S6. Permeabilization of the outer membrane renders Gram-negative bacteria susceptible to 1771 and compound 13. Bacterial growth curves of A) Klebsiella pneumoniae, B) Acinetobacter baumannii and C) Pseudomonas aeruginosa against 1771 and 13 (0 – 64 µg/ml) in combination with 0, 25, 50, 100 µg/ml of PAβN. The bacterial growth (OD 600nm) was […]
(1 picture or pasted object on this page, not shown here)

[2] = tested on: MRSA strains LAC and EMRSA-15; experiment: Serial passage resistance study; type: cell-based, Staphylococcus aureus; conditions: 25 days serial passage, after 14 days, then stable for 11 days
Description: plotted against time following 18 hours of growth at 37 °C. The icons represent the mean of three biological replicates.
Supplementary Materials and Methods
Synergistic activity with clinically relevant antibiotics
The synergistic ability of 1771 and 13 was achieved using the chequerboard micro-broth dilution method. Antibiotic partners tested included: oxacillin, daptomycin, vancomycin, gentamicin, and linezolid with starting concentrations of 256 µg/ml, 8 µg/ml, 8 µg/ml, 4 µg/ml, and 8 µg/ml respectively. Overnight cultures were sub-cultured 1:200 in fresh MHB and grown to optical density of OD600nm of 0.5-0.6 and prepared according to the MIC analysis. Following an 18 h incubation at 37 °C the sum of the fractional inhibitory […]
using the equation ΣFIC = FICA +FICB = (MICA in combination with B/MICA) + (MICB in combination with A/MICB). The resulting value was interpreted according to the following rules: synergistic (FIC ≤ 0.5), additive (FIC >0.5, <1) or indifferent (FIC ≥ 1 <4).
Serial passage resistance study
A serial passage in 1771 was performed using MRSA strains, LAC and EMRSA-15. For this assay, 15 ml tubes were filled with 3 ml of MHB and varying concentrations of 1771. The tubes containing either LAC or EMRSA-15 were incubated at 37 °C for 24 h before each passage. […]

[3] = tested on: S. aureus; parameters: method as in PMID 23401520; conditions: incubation for 3–4 days; cited from earlier work
[4] = tested on: LtaS; parameters: method as in PMID 29300473; conditions: LtaS in artificial liposomes; cited from earlier work

SMILES	growth of PAO1 [1]	change of MIC on serial passage [2]	resistant mutant selection [3]	inhibition of LtaS polymerization activity [4]
O=C(COC(=O)Cc1coc2ccc3ccccc3c12)Nc1nnc(-c2ccc(S(F)(F)(F)(F)F)cc2)o1 [Compound 13, 2-Oxo-2-((5-(4-(pentafluoro-l6-sulfaneyl)phenyl)-1,3,4-oxadiazol-2-yl)amino)ethyl 2-(Naphtho[2,1-b]furan-1-yl)acetate]	severely inhibited	–	–	–
O=C(COC(=O)Cc1coc2ccc3ccccc3c12)Nc1nnc(-c2ccccc2)o1 [Compound 1771, 2-Oxo-2-((5-phenyl-1,3,4-oxadiazol-2-yl)amino)ethyl 2-(Naphtho[2,1-b]furan-1-yl)acetate, reference compound]	–	increased twofold	did not result in resistant mutant selection	did not show inhibitory activity
